# Key:
# Assay type in all cases: cell-based, human
# [1] = test system: caspase-3/7 in MCF-7 cells; experiment: Caspase 3/7 expression, FLICA (FAM-DEVD-FMK) flow cytometry; settings: MCF-7, IC25 concentration, 24 h
# Procedure: (§1) The expression of caspase-3/7 in MCF-7 and MCF-12A cells was determined using the VybrantTM FAM™ Caspase-3 and Caspase-7 Assay Kit (Cat# V35118) (Thermo Fisher Scientific, Ireland). Cells were seeded at a density of 1 × 10^5 in T25 flasks and incubated in routine conditions for 24 h. […] Post-exposure, the cells were harvested for staining.
# (§2) Flow cytometry data analysis was performed with the CytExpert package (Ver. 2.4) (Beckman Coulter, USA) and Microsoft^Ⓡ Excel (USA). The mean MFI and percentage cells were calculated using these packages, followed by one-way ANOVA analysis with post hoc Bonferroni correction using GraphPad Prism (Ver. 9.4) (GraphPad, USA).
# (§3) The expression of caspase-3/7 was analysed in MCF-7 and MCF-12A cells using fluorescent labelled inhibitors of caspase (FLICA): FAM-DEVD-FMK. […] Following the apoptosis induction study, it was of interest to determine whether the complexes were stimulating the executioner caspases triggering the irreversible proteolytic degradation of cells, culminating in cell death. […] These three complexes were selected based on their structural similarities, while incorporating alternative metal centres.
# [2] = test system: caspase-3/7 in MCF-12A cells; experiment: as above; settings: IC25 concentration, 24 h
# Procedure: as §1, §2, §3
# MCF-7 cells = experiment: Apoptosis induction, Annexin V / propidium iodide flow cytometry; settings: MCF-7, IC25 concentration, 24 h
# Procedure: MCF-7 and MCF-12A cells were seeded at a density of 1 × 10^5 in T25 flasks (Sarstedt, Germany) and incubated for 24 h at 37 °C with 5% CO2 allowing for attachment. Post -incubation, the media was removed, cells were washed with sterile PBS and then treated using IC25 concentrations established from the in vitro cytotoxicity screen. […] After the exposure period, the cells were enzymatically detached using trypsin, collected and centrifuged at 1200RPM for 10 min. The cells were then washed with PBS, re-centrifuged and resuspended in 1 ml of annexin binding buffer. Prior to staining, the concentration of each sample was adjusted to 1 × 10^6 cells/ml. The cells were stained with 1 μl of propidium iodide (PI) (Sigma, Ireland) (Cat #P4864) and 2 μl of Annexin V (Thermo Fisher Scientific, Ireland) (Cat #A13199). The cells were incubated at room temperature for 15 min prior to analysis. The staining process was completed in the dark to eliminate interference with photo-sensitive reagents. Immediately prior to analysis by flow cytometry, 400 μl of annexin binding buffer was added to each sample. Samples were analysed using a (CytoFLEX) (Beckman Coulter, USA). The AV/PI assay was completed three independent times.
# as §2
# The induction of apoptosis was analysed in MCF-7 and MCF-12A cells using the Annexin V and Propidium Iodide assay with flow cytometry. […] The assay allows for the differentiation of viable, apoptotic and necrotic cells based on the selective staining of Annexin V and PI. Annexin V binds to phosphatidylserines externalised to the outer leaflet of the plasma membrane during apoptosis; and PI is a membrane impermeable dye that binds to DNA of necrotic cells with compromised plasma membranes.
# MCF-12A cells = experiment: Detection of reactive oxygen species with H2DCFDA; settings: 0.78 μM to 50 μM, over a 6-h period, fold-change compared to the negative control
# Procedure: The production of reactive oxygen species (ROS) was detected in MCF-7 and MCF12A cells using the cell-permeant dye 2',7'- dichlorodihydrofluorescein diacetate (H2DCFDA) (Thermo Fisher Scientific, Ireland) (Cat# D399). Cells were seeded at a density of 1 × 10^4 in 96 well plates and incubated for 24 h. Post-incubation, the media was removed, and cells were washed with PBS. A 10 μM DCFH-DA working solution was prepared using cell culture media, and the cells were incubated with 100 μl of the solution in the dark for 30 min. […] Fluorescent measurements were recorded at 15 min, 30 min, 1 h, and subsequently every hour up to 6 h using a Varioskan Lux™ multimode microplate reader (Thermo Fisher Scientific, Ireland) at an excitation wavelength of 495 nm and emission of 527 nm. The assay was repeated three independent times, using three replicates per plate.
# The cells were treated with a concentration range from 0.78 μM to 50 μM, and the response was measured over a 6-h period. This facilitated the evaluation of whether there was a time and/or concentration dependent response from the cells. Hydrogen peroxide (H2O2) was used as a positive control. ROS production is presented as fold-change compared to the negative control.
compound,measurement,setting,value
"O=C([O-])CCCCCCC(=O)[O-].[Cu+2].c1cnc2c(c1)ccc1cccnc12.c1cnc2c(c1)ccc1cccnc12 [Complex 2, [Cu(oda)(phen)2]]",Expression of caspase-3/7 (% cells),[1],highest expression of caspase-3/7
"O=C([O-])CCCCCCC(=O)[O-].[Ag+].[Ag+].c1cnc2c(c1)ccc1cccnc12.c1cnc2c(c1)ccc1cccnc12.c1cnc2c(c1)ccc1cccnc12 [Complex 4, [Ag2(oda)(phen)3]]",Expression of caspase-3/7 (% cells),[2],highest expression
"O=C([O-])CCCCCCCCCC(=O)[O-].[Ag+].[Ag+].c1cnc2c(c1)ccc1cccnc12.c1cnc2c(c1)ccc1cccnc12.c1cnc2c(c1)ccc1cccnc12 [Complex 5, [Ag2(udda)(phen)3]]",Necrotic population (% cells),MCF-7 cells,significant population
{[Mn2(oda)3(phen)4]^2−[Mn2(oda)(phen)4 (H2O)2]^2+} [Complex 7],ROS production,MCF-12A cells,markedly elevated production of ROS
same,Expression of caspase-3/7 (% cells),[1],lowest expression levels of the three complexes
same,Necrotic population (% cells),MCF-7 cells,necrotic population also observed
